{"source": "patent US20250170124A1", "about": "“METHODS OF DIAGNOSING AND TREATING NEURODEGENERATIVE DISEASES” (The General Hospital Corporation, priority 2022, published 2025)", "key": {"α-Synuclein [1]": {"tested_on": "α-Synuclein", "test": "Decrease of α-syn in iPSC derived DA neurons", "type": "cell-based, human", "design": "Decrease syn(%) DA neurons: dose or concentration left out as unconfirmed"}, "SNCA IRE": {"tested_on": "SNCA IRE", "test": "Spinach fluorescent assay, SNCA IRE fluorescence sensor R7"}, "PGL3 5′UTR": {"tested_on": "PGL3 5′UTR", "test": "Secondary (counterscreen) luciferase assay in H4-C cells, IRE stem-loop removed", "type": "cell-based, human", "conditions": "versus SNCA 5′UTR"}, "[2]": {"tested_on": "PrP-5′UTR (prion protein IRE)", "type": "cell-based, human", "conditions": "versus SNCA 5′UTR"}, "[3]": {"tested_on": "alpha-synuclein 5′-UTR IRE (SNCA 5′UTR)", "test": "Primary screen/retest: ASYN 5′-UTR IRE-driven luciferase expression in H4 cells", "type": "cell-based, human", "conditions": "Homo sapiens, 48 h"}, "alpha-synuclein": {"tested_on": "alpha-synuclein", "test": "ELISA secondary screen for alpha-synuclein in SH-SY5Y cells", "type": "cell-based, human", "design": "Decrease syn(%) SHSY5Y cells: unit of the concentration uncertain", "description": "FIG. 2 illustrates the results of ELISA experiments with compound 10 in SH-SY5Y cells. […]\nFIG. 18 illustrates alpha Synuclein ELISA (Invitrogen) measurements from SHSY5 undifferentiated neurons treated with the indicated doses (triplicate wells) of compounds 2, 13, 11, 14, 15, and 16) for 48 h.\nA human ASYN ELISA kit was utilized for all ELISA experiments (Invitrogen alpha-synuclein ELISA kit KHB0061) and the kit protocol was followed.\n1) Plate SH-SY5Y […] cells (Corning, 3570) at 10,000 cells/well in 50 μL phenol red free media (phenol red-free DMEM with 4.5 g/L D-glucose [Lonza, 12-917F] supplemented with 10% FBS [Lonza, 14-503E], 200 μM L-glutamine [Lonza, 17-605E], 100 μM penstrep [Lonza, 17-602E] and 200 μg/mL geneticin [Invitrogen, 10131-027]).\n2) Lid plates, then incubate cells for 24 hours at 37° C., 5% CO2, 95% humidity in a tissue culture incubator.\n3) Pin 100 nL of each compound into the assay plates spanning a final concentration range from 100-0.006 μM.\n4) Incubate plates for 48 h at 37° C., 5% CO2, 95% humidity. Following incubation, add 5 μL of Alamar blue solution per well and allow to incubate for 1 h at 37° C., 5% CO2, 95% humidity.\n5) Read Alamar blue fluorescence using a Thermo Varioskan (570 nm excitation, 585 nm emission). Remove cell media and add 30 μL cell lysis solution with protease inhibitor (G Biosciences, 786-331; 10 μL/mL).\n6) Place plates on a plate shaker for 1 h, before removing 20 μL lysate. Transfer cell lysates to 500 μL Eppendorf tubes and centrifuge (Eppendorf Centrifuge 5417C) for 10 min at 13,000 rpm.\n7) Add 12 μL of the cell supernatant to 48 μL of standard diluent buffer (1:5). Add these samples to ELISA plate wells. Prepare ASYN standard curve wells as described in the kit manual.\n8) Add 50 μL of anti-α-Synuclein (Detection Antibody) solution to each well, tapping the plate to mix. Cover the plate with a tape seal and incubate for 3 h at RT.\n9) Wash wells four times with wash buffer using a multichannel pipette and add 100 μL of anti-rabbit IgG-HRP antibody solution to each well. Cover the plate and incubate for 30 min at RT. Wash wells four times with wash buffer and add 100 μL of Stabilized Chromogen to each well. Seal the plate and incubate in the dark at RT for 30 min.\n10) Finally, add 100 μL of Stop Solution to each well, tapping the plate to mix, and read absorbance at 450 nm using an Envision plate reader (Perkin Elmer)."}, "α-Synuclein [4]": {"tested_on": "α-Synuclein", "test": "Western blots of α-syn in iPSC derived DA neuron lysates", "type": "cell-based, human", "conditions": "72 h"}, "α-Syn": {"tested_on": "α-Syn", "test": "Decrease of α-syn in Triple SNCA cortical neurons", "conditions": "Table 2; concentration not given"}, "[5]": {"tested_on": "α-Syn in tyrosine hydroxylase positive (TH+) neurons", "test": "Immunocytochemical quantitation of α-Syn in TH+ SNCA+ neurons", "type": "cell-based", "conditions": "low dose; decreased from 30 %", "description": "FIG. 14 illustrates that immunocytochemical quantitation of effect of Compound 2 on α-Syn expression in tyrosine hydroxylase positive (TH+) α-synuclein positive (SNCA+) neurons. Panel A: antibody stains for TH and α-Syn. TH positive cells were counted. TH positive and SNCA positive cells were counted. The quantification was done by collecting 9 image fields/well with 3 wells/condition Panel B. The images were fed into Cell Profiler (Broad software)."}}, "note": "Like-named read-outs stand apart in the source and are kept apart here."}
{"smiles": "COc1ccc(N(CC(=O)Nc2cc(Cl)ccc2OC)S(=O)(=O)c2c(C)noc2C)cc1", "note": "[Compound 2, N-(5-chloro-2-methoxyphenyl)-2-((N-(4-methoxyphenyl)-3,5-dimethylisoxazole)-4-sulfonamido)acetamide]", "values": [{"measurement": "Decrease αsyn(%) DA neurons", "setting": "α-Synuclein [1]; Table 2, @ 1 μM", "value": "60 @ 1 μM %"}, {"measurement": "Decrease syn(%) DA neurons", "setting": "α-Synuclein [1]; Table 3", "value": "60 @ 1M %"}, {"measurement": "binding to SNCA IRE (fluorescence of sensor R7)", "setting": "SNCA IRE", "value": "significant increases in binding"}, {"measurement": "Selectivity PGL3 5′UTR", "setting": "PGL3 5′UTR; Table 2", "value": "21-fold"}, {"measurement": "Selectivity PGL3 5′UTR", "setting": "PGL3 5′UTR; Table 3", "value": "21-fold"}, {"measurement": "Selectivity PrP-5′UTR", "setting": "[2]; Table 2", "value": "18-fold"}, {"measurement": "Selectivity PrP-5′UTR", "setting": "[2]; Table 3", "value": "18-fold"}, {"measurement": "IC50", "setting": "[3]; read-out: IC50/M (SNCA 5′UTR)", "value": 5.8, "unit": "µM"}, {"measurement": "IC50", "setting": "[3]; read-out: IC50/μM (SNCA 5′UTR)", "value": 5.8, "unit": "µM"}, {"measurement": "Decrease αsyn(%) SHSY5Y cells", "setting": "alpha-synuclein; Table 2, @ 0.1 μM", "value": "25-50 @ 0.1%"}, {"measurement": "Decrease syn(%) SHSY5Y cells", "setting": "alpha-synuclein; Table 3, @ 0.1 µM", "value": "25-50 @ 0.1M %"}, {"measurement": "inhibition of α-Synuclein protein expression versus β-Syn, γ-Syn, Ferritin, APP and Prion proteins", "setting": "α-Synuclein [4]; 1 μM, normalized to β-Actin", "value": "selectively inhibit"}, {"measurement": "α-syn levels (Western blot)", "setting": "α-Synuclein [4]; 10 μM and 1 μM compound, β-actin standardized, N=3", "value": "reduced"}, {"measurement": "Decrease αsyn(%) X3 SNCA neurons", "setting": "α-Syn", "value": 50, "unit": "%"}, {"measurement": "number of TH/SNCA positive cells", "setting": "[5]", "value": 18, "unit": "%"}]}
